The results in this text go back to US20160002204A1 (Board of Regents, The University of Texas System, priority 2014, published 2016).

The target of this assay is T1, GLS1 (purified recombinant human GAC) (Homo sapiens, UniProt O94925).
T1 sequence (O94925 55-598 isoform O94925-3 limits assumed): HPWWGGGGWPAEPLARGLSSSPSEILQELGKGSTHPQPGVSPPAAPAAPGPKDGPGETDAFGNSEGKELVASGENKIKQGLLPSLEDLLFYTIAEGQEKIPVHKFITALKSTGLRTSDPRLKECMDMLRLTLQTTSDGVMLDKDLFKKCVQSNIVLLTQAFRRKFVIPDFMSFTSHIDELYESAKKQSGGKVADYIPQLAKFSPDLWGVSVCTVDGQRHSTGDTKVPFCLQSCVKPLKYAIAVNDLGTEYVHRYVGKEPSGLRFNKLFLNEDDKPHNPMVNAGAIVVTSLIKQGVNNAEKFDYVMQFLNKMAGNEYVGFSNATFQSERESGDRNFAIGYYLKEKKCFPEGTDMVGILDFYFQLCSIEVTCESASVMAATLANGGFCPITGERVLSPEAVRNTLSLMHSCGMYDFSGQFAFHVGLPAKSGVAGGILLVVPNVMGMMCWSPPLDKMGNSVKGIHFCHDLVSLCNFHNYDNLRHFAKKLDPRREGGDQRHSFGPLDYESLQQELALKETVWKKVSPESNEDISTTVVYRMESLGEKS
As to the kind of experiment: GLS1 enzymatic activity assay (dual-coupled, Amplex UltraRed/resorufin). The format is biochemical. As for the experimental part:
GLS1 Enzymatic Activity Assay
The inhibition of purified recombinant human GAC by varying concentrations of inhibitors is assessed via a dual-coupled enzymatic assay. The glutamate produced by the glutaminase reaction is used by glutamate oxidase to produce α-ketoglutarate, ammonia, and hydrogen peroxide, with this hydrogen peroxide subsequently being used by horseradish peroxidase to produce resorufin in the presence of Amplex UltraRed. The assay buffer consisted of 50 mM Hepes (pH 7.4), 0.25 mM EDTA and 0.1 mM Triton X-100. GAC was incubated with potassium phosphate (10 minutes at room temperature) prior to incubation with inhibitor (10 minutes at room temperature). The final reaction conditions were as follows: 2 nM GAC, 50 mM potassium phosphate, 100 mU/mL glutamate oxidase (Sigma), 1 mM glutamine (Sigma), 100 mU/mL horseradish peroxidase (Sigma), 75 μM Amplex UltraRed (Life Technologies), and 1% (v/v) DMSO. The production of resorufin was monitored on a Perkin Elmer Envision plate reader (excitation 530 nm, emission 590 nm) either in a kinetics or endpoint mode (at 20 minutes). IC50 values were calculated using a four-parameter logistic curve fit.

Consider `CCN1CCC(CC(=O)Nc2ccn(CCCCn3cc(C(=O)NCc4cccc(OC(F)(F)F)c4)nn3)c(=O)c2)CC1` [Example 207, 1-(4-{4-[2-(1-ethylpiperidin-4-yl)acetamido]-2-oxo-1,2-dihydropyridin-1-yl}butyl)-N-{[3-(trifluoromethoxy)phenyl]methyl}-1H-1,2,3-triazole-4-carboxamide], for which the IC50 was 500 to 5000 nM.

Take `COCCCNc1ccn(CCCCc2ccc(NC(=O)Cc3ccccc3)nn2)c(=O)n1` [Example 25, N-(6-(4-(4-((3-methoxypropyl)amino)-2-oxopyrimidin-1(2H)-yl)butyl)pyridazin-3-yl)-2-phenylacetamide]: the IC50 is 500 to 5000 nM.

Take `O=C(Cc1ccccn1)Nc1ccn(CCCCc2nnc(C(=O)NCc3ccccn3)s2)c(=O)c1` [Example 448, 5-(4-{2-oxo-4-[2-(pyridin-2-yl)acetamido]-1,2-dihydropyridin-1-yl}butyl)-N-(pyridin-2-ylmethyl)-1,3,4-thiadiazole-2-carboxamide]: the IC50 fell in the range of 500 to 5000 nM.

Regarding `CC(C)CS(=O)(=O)Nc1ccn(CCCCc2ccc(NC(=O)Cc3ccccc3)nn2)c(=O)n1` [Example 26, N-(6-(4-(4-(2-methylpropylsulfonamido)-2-oxopyrimidin-1(2H)-yl)butyl)pyridazin-3-yl)-2-phenylacetamide], the IC50 was 500 to 5000 nM.

Turning to `CCOC(=O)c1cn(CC(F)CCn2ccc(NC(=O)CC3CCCCC3)c(F)c2=O)nn1` (stereo not drawn) [Example 225, ethyl 1-{4-[4-(2-cyclohexylacetamido)-3-fluoro-2-oxo-1,2-dihydropyridin-1-yl]-2-fluorobutyl}-1H-1,2,3-triazole-4-carboxylate], the IC50 lay within 500 to 5000 nM.

In the case of `CCN1CCC(CC(=O)Nc2ccn(CCC(F)Cn3cc(C(=O)NCc4cccc(OC(F)(F)F)c4)nn3)c(=O)c2)CC1` (stereo not drawn) [Example 218, 1-(4-{4-[2-(1-ethylpiperidin-4-yl)acetamido]-2-oxo-1,2-dihydropyridin-1-yl}-2-fluorobutyl)-N-{[3-(trifluoromethoxy)phenyl]methyl}-1H-1,2,3-triazole-4-carboxamide], the half-inhibitory concentration (IC50) lay in the range of 100 to 500 nM.

In the case of `CC(C)(C)OC(=O)NCc1cn(CCCCn2ccc(NC(=O)Cc3ccccc3)cc2=O)nn1` [Example 9, tert-Butyl N-[(1-{4-[2-oxo-4-(2-phenylacetamido)-1,2-dihydropyridin-1-yl]butyl}-1H-1,2,3-triazol-4-yl)methyl]carbamate], the IC50 lay in the range of 500 to 5000 nM.

For `CC(C)(C)OC(=O)Nc1ccn(CCC(F)Cn2cc(C(=O)NCc3cccc(C(F)(F)F)n3)nn2)c(=O)c1F` (stereo not drawn) [Example 319, tert-butyl N-(3-fluoro-1-{3-fluoro-4-[4-({[6-(trifluoromethyl)pyridin-2-yl]methyl}carbamoyl)-1H-1,2,3-triazol-1-yl]butyl}-2-oxo-1,2-dihydropyridin-4-yl)carbamate], the 50% inhibitory concentration (IC50) was in the range of 100 to 500 nM.

On to `O=C(Cc1ccccc1)Nc1ccn(CCCn2cc(C(=O)NCc3cccc(OC(F)(F)F)c3)nn2)c(=O)c1` [Example 436, 1-{3-[2-oxo-4-(2-phenylacetamido)-1,2-dihydropyridin-1-yl]propyl}-N-{[3-(trifluoromethoxy)phenyl]methyl}-1H-1,2,3-triazole-4-carboxamide], for which the half-inhibitory concentration (IC50) is more than 5000 nM.

As to `Nc1ccn(CCC(F)Cn2cc(C(=O)NCc3cccc(C(F)(F)F)n3)nn2)c(=O)c1F` (stereo not drawn) [Example 321, 1-[4-(4-amino-3-fluoro-2-oxo-1,2-dihydropyridin-1-yl)-2-fluorobutyl]-N-{[6-(trifluoromethyl)pyridin-2-yl]methyl}-1H-1,2,3-triazole-4-carboxamide], the IC50 was more than 5000 nM.

Take `Nc1ccn(CCCCc2ccc(NC(=O)Cc3ccccc3)nn2)c(=O)n1` [Example 21, N-(6-(4-(4-amino-2-oxopyrimidin-1(2H)-yl)butyl)pyridazin-3-yl)-2-phenylacetamide]: the IC50 was 500 to 5000 nM.

With `CC(=O)Nc1ccn(CCCCn2cc(C(=O)NCc3cccc(C(F)(F)F)c3)nn2)c(=O)c1` [Example 142, 1-[4-(4-acetamido-2-oxo-1,2-dihydropyridin-1-yl)butyl]-N-{[3-(trifluoromethyl)phenyl]methyl}-1H-1,2,3-triazole-4-carboxamide], the IC50 fell in the range of 500 to 5000 nM.

Turning to `C[C@H](NC(=O)c1ccn(CCCCn2cc(C(=O)NCc3cccc(OC(F)(F)F)c3)nn2)c(=O)c1)C(N)=O` [Example 138, 1-[4-(4-{[(1S)-1-carbamoylethyl]carbamoyl}-2-oxo-1,2-dihydropyridin-1-yl)butyl]-N-{[3-(trifluoromethoxy)phenyl]methyl}-1H-1,2,3-triazole-4-carboxamide], the 50% inhibitory concentration (IC50) lay within 500 to 5000 nM.

Consider `O=C(NCc1ccccc1)c1ccn(CCCn2cc(C(=O)NCc3cccc(OC(F)(F)F)c3)nn2)c(=O)c1` [Example 437, N-benzyl-2-oxo-1-{3-[4-({[3-(trifluoromethoxy)phenyl]methyl}carbamoyl)-1H-1,2,3-triazol-1-yl]propyl}-1,2-dihydropyridine-4-carboxamide], for which the half-inhibitory concentration (IC50) was more than 5000 nM.

Take `Nc1ccn(CCCCn2cc(C(=O)NCc3cccc(C(F)(F)F)c3)nn2)c(=O)c1` [Example 140, 1-[4-(4-amino-2-oxo-1,2-dihydropyridin-1-yl)butyl]-N-{[3-(trifluoromethyl)phenyl]methyl}-1H-1,2,3-triazole-4-carboxamide]: the half-maximal inhibitory concentration (IC50) was 500 to 5000 nM.

Take `C[C@@H](NC(=O)c1ccn(CCCCn2cc(C(=O)NCc3cccc(OC(F)(F)F)c3)nn2)c(=O)c1)C(N)=O` [Example 137, 1-[4-(4-{[(1R)-1-carbamoylethyl]carbamoyl}-2-oxo-1,2-dihydropyridin-1-yl)butyl]-N-{[3-(trifluoromethoxy)phenyl]methyl}-1H-1,2,3-triazole-4-carboxamide]: the IC50 was 500 to 5000 nM.

On to `COCCNC(=O)c1nnc(CCCCn2ccc(NC(=O)Cc3ccccc3)cc2=O)s1` [Example 449, N-(2-methoxyethyl)-5-{4-[2-oxo-4-(2-phenylacetamido)-1,2-dihydropyridin-1-yl]butyl}-1,3,4-thiadiazole-2-carboxamide], for which the IC50 fell in the range of 500 to 5000 nM.

Turning to `Nc1ccn(CCC(F)Cn2cc(C(=O)NCc3cc(C(F)(F)F)ccn3)nn2)c(=O)c1F` (stereo not drawn) [Example 322, 1-[4-(4-amino-3-fluoro-2-oxo-1,2-dihydropyridin-1-yl)-2-fluorobutyl]-N-{[4-(trifluoromethyl)pyridin-2-yl]methyl}-1H-1,2,3-triazole-4-carboxamide], the IC50 was more than 5000 nM.

Consider `O=C1CN(CC(=O)Nc2ccn(CCC(F)Cn3cc(C(=O)NCc4cccc(OC(F)(F)F)c4)nn3)c(=O)c2)CCN1` (stereo not drawn) [Example 230, 1-(2-fluoro-4-{2-oxo-4-[2-(3-oxopiperazin-1-yl)acetamido]-1,2-dihydropyridin-1-yl}butyl)-N-{[3-(trifluoromethoxy)phenyl]methyl}-1H-1,2,3-triazole-4-carboxamide], for which the half-maximal inhibitory concentration (IC50) is 100 to 500 nM.

For `Cc1ccc(CNC(=O)c2nnc(CCCCn3ccc(NC(=O)Cc4ccccn4)cc3=O)s2)cn1` [Example 444, N-[(6-methylpyridin-3-yl)methyl]-5-(4-{2-oxo-4-[2-(pyridin-2-yl)acetamido]-1,2-dihydropyridin-1-yl}butyl)-1,3,4-thiadiazole-2-carboxamide], the concentration for half-maximal inhibition (IC50) is 100 to 500 nM.

As to `O=C(Cc1cccc(OC(F)(F)F)c1)Nc1ccn(CCCCn2cc(C(=O)NCc3ccccc3)nn2)c(=O)n1` [Example 115, N-benzyl-1-[4-(2-oxo-4-{2-[3-(trifluoromethoxy)phenyl]acetamido}-1,2-dihydropyrimidin-1-yl)butyl]-1H-1,2,3-triazole-4-carboxamide], the IC50 fell in the range of 500 to 5000 nM.

Consider `O=C(Cc1ccccn1)Nc1ccn(CCCCc2nnc(C(=O)NCc3ncccc3F)s2)c(=O)c1` [Example 457, N-[(3-fluoropyridin-2-yl)methyl]-5-(4-{2-oxo-4-[2-(pyridin-2-yl)acetamido]-1,2-dihydropyridin-1-yl}butyl)-1,3,4-thiadiazole-2-carboxamide], for which the concentration for half-maximal inhibition (IC50) lay within 500 to 5000 nM.

With `CN1CCN(CC(=O)Nc2ccn(CCC(F)Cn3cc(C(=O)NCc4cccc(OC(F)(F)F)c4)nn3)c(=O)c2)CC1` (stereo not drawn) [Example 254, 1-(2-fluoro-4-{4-[2-(4-methylpiperazin-1-yl)acetamido]-2-oxo-1,2-dihydropyridin-1-yl}butyl)-N-{[3-(trifluoromethoxy)phenyl]methyl}-1H-1,2,3-triazole-4-carboxamide], the half-maximal inhibitory concentration (IC50) is 100 to 500 nM.

On to `COCCNC(=O)c1nnc(CCCCn2ccc(NC(=O)Cc3ccccn3)cc2=O)s1` [Example 452, N-(2-methoxyethyl)-5-(4-{2-oxo-4-[2-(pyridin-2-yl)acetamido]-1,2-dihydropyridin-1-yl]butyl)-1,3,4-thiadiazole-2-carboxamide], for which the IC50 was 500 to 5000 nM.
